In patent US10987319B2, “TFEB activator C1 ameliorates app and tau pathology and rescues cognitive deficits in neurodegenerative diseases” (Hong Kong Baptist University, priority 2018, dated 2021):
Where two headings read alike, the source gives them in different places.

Tests used:
Type in all cases: in vivo
[1] = Distribution of C1 in brain regions, plasma and CSF of rats 30 min after oral dosing; settings: Sprague-Dawley, rat, SD rats, 30 min after oral 10 mg/kg
Description: Male C57BL/6 mice and Sprague Dawley rats were purchased from Chinese University of Hong Kong, acclimatized in Hong Kong Baptist university animal house for 2 weeks. Animals were kept for 18 h fasting before the experiment. Curcumin analog C1 and curcumin were suspended in 1% CMC-Na at 10 mg/kg, given to animals through oral route at 10 ml/kg dosing volume. Blood (by heart puncture) and brain samples were collected starting from 0.25, 0.5, 1, 2, 4, 6, 8, 12 and 24 h time points (n=3 for each time point) under chloral hydrate anesthesia at 500 mg/kg (I.P. injection). Based on mice pharmacokinetic study, rat blood, brain and cerebrospinal fluids (CSF) were collected at 30 minutes time point (n=4). All blood samples were collected in heparinized tubes. Plasma was collected by centrifuging at 10,000 rpm for 10 minutes at 4° C. Blood, brain and CSF were stored in −80° C. until further analysis.
Cerebrospinal fluid (CSF) was collected by puncturing Cisterna Magna. Briefly, stereotaxic apparatus (Stoelting, Wood Dale, USA) was used for CSF collection. The tip of CSF collection needle (21G) was placed at the center of stereotaxic apparatus ear bars contact and considered it as zero point. Then rats were anaesthetized with chloral hydrate at 500 mg/kg in saline through intra-peritoneal route. Rats were fixed on the stereotaxic apparatus with 3 cm elevated body position. Rat head was positioned at nearly 110° angle between stereotaxic apparatus frame and rat nose. Cisterna magna location was identified by a 3 mm^2 depressed area between the spine and occipital protuberance in mid-sagittal plane, at 10-12 mm approximate distance from ear. The collection needle was inserted into the Cisterna magna from zero point at A−P: −1.5±1 mm, M−L: 0 mm and D−V: not more than 4-6 mm (from the skin surface). The needle was connected to a 1 ml syringe through a silicon tube. By applying a gentle negative pressure through 1 ml syringe, 100 μl of CSF without any blood contamination was collected.
Whole brain and brain parts were homogenized with 2 weight/volumes of PBS (pH=3.2), spiked with 10 μl of internal standard salbutamol (200 ng/ml in methanol). The homogenate was liquid-liquid extracted with 1 ml of ethyl acetate. 50 μl of 0.5M sodium hydroxide was added to the brain homogenate for efficient C1 extraction. After vigorous sonication and vortex mixing, samples were centrifuged at 15,000 RPM for 10 min. The supernatant was collected and vacuum dried. The samples were reconstituted with 100 μl of mobile phase (0.1% formic acid in acetonitrile), vortex mixed and transferred to an amber colored sampler vial with plastic insert.
100 μl of plasma and CSF was mixed with 100 μl of PBS (pH=3.2), 10 μl of 0.05 M sodium hydroxide and spiked with 10 μl of salbutamol (200 ng/ml in methanol). The mixture was liquid-liquid extracted with 500 μl of ethyl acetate. After vigorous sonication and vortex mixing, samples were centrifuged at 15,000 RPM for 10 min at 4° C. The supernatant was collected and vacuum dried. The samples were reconstituted with 100 μl of mobile phase (0.1% formic acid in acetonitrile), vortex mixed and transferred to an amber colored sampler vial with plastic insert.
UPLC 1290 (Agilent technologies, CA, USA) with binary pump, autosampler system, column with thermostat, vacuum degasser and 6460 QQQ Mass spectrometer was used for compound detection. Chromatographic separation was achieved by waters BEH-C18 (1.7 μm, 2.1×50 mm) column maintained at 40° C. […]

[2] = test system: 3×Tg mice; assay: Morris-water maze
Description: Homozygous 3×Tg mice (APP KM670/671NL (Swedish), MAPT P301L, PSEN1 M146V) were produced in Hong Kong Baptist University animal house and maintained at 23±2° C. temperature, 60±15% relative humidity with free access to food and water ad libitum. Seven months old WT (129/SvJ, n=6 for male mice; n=10 for female mice) and 3×Tg mice (n=6 for male mice; n=10 for female mice) were treated daily with vehicle (1% CMC-Na; Sigma-Aldrich, C5678]), curcumin analogue C1 (2.5 mg/kg, 5 mg/kg, 10 mg/kg) or curcumin (50 mg/kg; Sigma-Aldrich, 08511) suspended in 1% CMC-Na by oral gavage for 7 months. 3×Tg mice were treated with the indicated compounds for 7 months and Morris-water maze (MWM) was used to evaluate the spatial learning memory. MWM is a circular water (21±1° C.) container with 1 meter diameter. Animals were pre-quarantined and acclimatized to the experimenting room at least 1 week before the start of the experiment. The experiment was started with one day visual platform trial. Each mouse underwent 4 visible platform trails (each trial 60 seconds) with different platform placement, positioned above the water level. Hidden platform training was conducted after mixing a non-toxic paint in the water. Mice were trained for 6 continuous days, each day composed of different session with 4 hidden platform trials (each trial 60 seconds). Each session was designed with randomized animal introduction pattern into the water maze with unchanged platform position. Each trial was conducted with 30 min inter-trial interval and provided with external cues. To assess the long term spatial memory retrieval a probe trial (60 seconds) was conducted 24 h after the last training session. During probe trial water maze was divided into 4 quadrants. The hidden platform in the target quadrant was removed after determining its location. Ethnovision XT software was used to observe and record the swimming pattern. During hidden platform training sessions, time spent to find the platform was taken as a parameter to evaluate memory acquisition. In probe trial percentage of time spent in the target quadrant compared to the other 3 quadrants was calculated.

[3] = test system: APP, CTFs, phosphorylated Tau, total Tau, TFEB, LC3-II; assay: Western blotting of hippocampus, female 3×Tg mice
Description: Homozygous 3×Tg mice (APP KM670/671NL (Swedish), MAPT P301L, PSEN1 M146V) were produced in Hong Kong Baptist University animal house and maintained at 23±2° C. temperature, 60±15% relative humidity with free access to food and water ad libitum.
Brain tissues were lysed with RIPA buffer (TBS with 1% NP-40, 1% sodium deoxycholic acid, 0.1% SDS, and protease phosphatase inhibitor cocktails) and centrifuged at 15,000 RPM for 30 min. Supernatant is collected and the pellets were further lysed with 2% SDS in RIPA buffer. Protein concentration was estimated by BCA assay. […] Protein chemiluminescence signal was detected by using ECL kit and quantified using ImageJ software.

concentration at 30 min ([1]; cerebrospinal fluid, read-out: level of C1 in CSF): 102 ± 52.4 ng/mL | concentration at 30 min ([1]; frontal cortex, read-out: concentration of C1 in the frontal cortex): 58 ± 18.6 ng/g | concentration at 30 min ([1]; hippocampus, read-out: concentration of C1 in the hippocampus): 68.4 ± 21.7 ng/g | concentration at 30 min ([1]; plasma, read-out: level of C1 in plasma): 352 ± 21.4 ng/mL | concentration at 30 min ([1]; striatum, read-out: concentration of C1 in the striatum): 4.69 ± 2.19 ng/g
Structure (SMILES): COc1ccccc1/C=C/C(=O)/C=C/c1ccccc1OC [Compound C1, 1,5-bis(2-methoxyphenyl)penta-1,4-dien-3-one]
percentage of time spent in the target quadrant, probe trial, vs vehicle ([2]; 2.5 mg/kg oral 7 months): significantly increased | percentage of time spent in the target quadrant, probe trial, vs vehicle ([2]; 5 mg/kg oral 7 months): significantly increased | distance traveled to find the hidden platform vs vehicle ([2]; 10 mg/kg oral 7 months): significantly reduced | percentage of time spent in the target quadrant, probe trial, vs vehicle ([2]; 10 mg/kg oral 7 months): significantly increased | target recognition compared with curcumin ([2]; C1 10 mg/kg vs curcumin 50 mg/kg): much better improvement in target recognition than curcumin | hippocampal CTFs ([3]; 10 mg/kg oral 7 months): significantly reduced | hippocampal Fl-APP levels ([3]; 10 mg/kg oral 7 months): but not Fl-APP levels | levels of phosphorylated Tau (PHF1, AT8) ([3]; hippocampus, 10 mg/kg oral 7 months): significantly decreased | levels of LC3-II ([3]; oral 7 months): significantly increased | levels of nuclear TFEB ([3]; oral 7 months): significantly increased
